For one experiment, the target named is T1, human FLT4 (Homo sapiens, UniProt P35916).
T1 construct: a construct expressing the human FLT4 (789-1207) with an amino terminal GST tag; host or cells: Sf9 insect cells (baculovirus)
Description: FLT4 kinase assay (DELFIA enzyme inhibition). In kind it is biochemical. The conditions noted are these: read-out: FLT4 IC50. The protocol: A GST-kinase fusion protein of 70 KDa was produced using sf9 baculovirus expression system, with a construct expressing the human FLT4 (789-1207) with an amino terminal GST tag. The protein was purified by affinity chromatography using glutathione-agarose followed by separation on a gel filtration column.
FLT4 enzyme activity is determined using a Dissociation Enhanced Lanthanide Fluorescent Immunoassay (DELFIA) with a peptide substrate derived from the MET (Tyr 1253) peptide […] with a core sequence […].
The amount of phosphorylated peptide produced is detected by means of a phospho-Tyrosine specific Europium-labelled antibody using Time-Resolved Fluorescence at Excitation 360-35 nm and Emission 620-35 nm.
Assay reactions are set up in a 25 uL final volume on a 96 well plate. […] The reaction is allowed to proceed for 30 minutes at room temperature before stopping with 100 uL Stop solution comprising of 100 mM EDTA, 1×BSA blocker in TBS (Perbio) and 0.05% Surfact-Amps20 (Perbio).
The stopped reaction is transferred to a black 96-well Neutravidin-coated plate (Perbio) and incubated for 30 minutes to capture the biotinylated peptide substrate. After washing wells 3 times with 200 uL TBS/T buffer, Anti-Phospho-Tyr-100 antibody labelled with Eu—N1 (Perkin Elmer AD0159) is added to all wells for 60 minutes at room temperature. After a repeat washing step, DELFIA Enhancement solution (Perkin Elmer) is added to all wells for 5 minutes and the fluorescence measured on a plate reader Analyst HT (Molecular Devices).
The % inhibition of the activity is calculated and plotted in order to determine the concentration of test compound required to inhibit 50% of the enzyme activity (IC50).

For the next experiment, the target named is T2, human Aurora A (Homo sapiens, UniProt O14965).
T2 construct: Histidine tag (N); host or cells: Sf9 insect cells (baculovirus)
T2 sequence (O14965 1-403): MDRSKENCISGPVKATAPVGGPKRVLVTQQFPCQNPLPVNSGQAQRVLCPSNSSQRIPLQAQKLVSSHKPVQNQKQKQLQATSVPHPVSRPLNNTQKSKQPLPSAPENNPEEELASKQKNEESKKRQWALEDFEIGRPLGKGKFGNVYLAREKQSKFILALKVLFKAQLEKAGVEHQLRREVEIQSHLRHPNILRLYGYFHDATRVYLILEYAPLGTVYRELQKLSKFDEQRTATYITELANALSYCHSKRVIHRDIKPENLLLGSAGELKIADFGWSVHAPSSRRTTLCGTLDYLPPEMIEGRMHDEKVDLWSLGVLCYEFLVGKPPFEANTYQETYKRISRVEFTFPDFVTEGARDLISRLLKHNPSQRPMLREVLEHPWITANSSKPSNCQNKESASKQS
Description: Aurora A kinase assay (DELFIA enzyme inhibition). The conditions noted are these: read-out: Aurora A IC50. The experiment is classed as biochemical. On the procedure:
The protein was purified by one-step affinity chromatography using nickel-agarose […]
Assay reactions are set up in a 25 uL final volume on a 96 well plate. […] The reaction is allowed to proceed for 30 minutes at room temperature before stopping with 100 μL Stop solution comprising of 100 mM EDTA, 1×BSA blocker in TBS (Perbio) and 0.05% Surfact-Amps20 (Perbio).
The stopped reaction is transferred to a black 96-well Neutravidin-coated plate (Perbio) and incubated for 30 minutes to capture the biotinylated peptide substrate. […] After repeating the washing step, the plate is further incubated for one hour with Europium-labelled anti-rabbit antibody (Perkin Elmer AD0105). The wash step is repeated for a final time before DELFIA Enhancement solution (Perkin Elmer) is added to all wells for 5 minutes and the fluorescence measured on a plate reader Analyst HT (Molecular Devices).

Some results are limits rather than exact numbers.

The IC50 is the point on the concentration scale where inhibition reaches its midpoint.

T1 sequence (P35916 789-1207): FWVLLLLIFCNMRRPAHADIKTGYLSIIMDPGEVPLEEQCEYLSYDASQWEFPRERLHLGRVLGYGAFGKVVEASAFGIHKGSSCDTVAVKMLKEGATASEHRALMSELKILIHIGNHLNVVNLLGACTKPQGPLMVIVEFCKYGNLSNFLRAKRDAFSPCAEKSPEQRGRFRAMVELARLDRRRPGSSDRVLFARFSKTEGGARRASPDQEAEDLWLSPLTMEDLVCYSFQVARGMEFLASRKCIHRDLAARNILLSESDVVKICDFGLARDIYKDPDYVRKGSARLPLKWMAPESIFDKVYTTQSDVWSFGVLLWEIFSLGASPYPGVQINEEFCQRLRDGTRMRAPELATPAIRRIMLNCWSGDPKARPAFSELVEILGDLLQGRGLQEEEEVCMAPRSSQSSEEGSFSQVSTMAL

Regarding `NC(=O)c1nc(-c2c(F)cccc2F)oc1Nc1ccc(N2CCC(N)CC2)cc1` [Example Q-17, 5-(4-(4-aminopiperidin-1-yl)phenylamino)-2-(2,6-difluorophenyl)oxazole-4-carboxamide], the IC50 on human FLT4 and at human Aurora A was less than 10 µM in each case.

As to `COc1ccc(-c2nc(-c3cccc(C)c3)[nH]c2C(N)=O)cc1` [Example A-7, 4-(4-methoxyphenyl)-2-m-tolyl-1H-imidazole-5-carboxamide], the IC50 at human FLT4 and on human Aurora A was less than 100 µM each time.

Regarding `NC(=O)c1nc(-c2c(F)cccc2F)oc1-c1cccc(C(=O)N2CCCCC2)c1` [Example F-31, 2-(2,6-Difluorophenyl)-5-(3-(piperidine-1-carbonyl)phenyl)oxazole-4-carboxamide], the IC50 on human FLT4 is less than 10 µM; at human Aurora A, less than 100 µM.

For the compound `NC(=O)c1nc(-c2c(F)cccc2F)oc1-c1ccc(OCCNCCO)cc1` [Example S-21, 2-(2,6-difluorophenyl)-5-(4-(2-(2-hydroxyethylamino)ethoxy)phenyl)oxazole-4-carboxamide], the IC50 on human FLT4 and on human Aurora A was less than 10 µM each time.

In the case of `COc1ccc(-c2nc(-c3ccncc3)[nH]c2C(N)=O)cc1` [Example B-1, 4-(4-methoxyphenyl)-2-(pyridin-4-yl)-1H-imidazole-5-carboxamide], the IC50 on human FLT4 and on human Aurora A was less than 100 µM each time.

For `NC(=O)c1nc(-c2c(F)cccc2F)oc1Nc1cccnc1` [Example Q-45, 2-(2,6-difluorophenyl)-5-(pyridin-3-ylamino)oxazole-4-carboxamide], the IC50 on human FLT4 and at human Aurora A was less than 10 µM each time.

With `NC(=O)c1nc(-c2c(F)cccc2F)oc1Nc1ccc(C(=O)N[C@H]2CCNC2)cc1` [Example U-7, (S)-2-(2,6-difluorophenyl)-5-(4-(pyrrolidin-3-ylcarbamoyl)phenylamino)oxazole-4-carboxamide], the concentration for half-maximal inhibition (IC50) at human FLT4 and on human Aurora A was less than 10 µM throughout.

In the case of `CNCCCNC(=O)c1ccc(Nc2oc(-c3c(F)cccc3F)nc2C(N)=O)cc1` [Example U-4, 5-(4-((3-(methylamino)propyl)carbamoyl)phenylamino)-2-(2,6-difluorophenyl) oxazole-4-carboxamide], the IC50 at human FLT4 and at human Aurora A was less than 10 µM in each case.

`CS(=O)(=O)c1cccc(Nc2oc(-c3c(F)cccc3F)nc2C(N)=O)c1` [Example Q-4, 2-(2,6-difluorophenyl)-5-(3-(methylsulfonyl)phenylamino)oxazole-4-carboxamide]: the concentration for half-maximal inhibition (IC50) at human FLT4 and at human Aurora A was less than 10 µM throughout.

As for `NCCNC(=O)c1ccc(Nc2oc(-c3c(F)cccc3F)nc2C(N)=O)cc1` [Example Q-52, 5-(4-((2-aminoethyl)carbamoyl)phenylamino)-2-(2,6-difluorophenyl)oxazole-4-carboxamide], the IC50 on human FLT4 and on human Aurora A was less than 10 µM in each case.

With `COc1ccc(-c2nc(-c3c(F)cccc3Cl)[nH]c2C(N)=O)cc1` [Example A-15, 2-(2-chloro-6-fluorophenyl)-4-(4-methoxyphenyl)-1H-imidazole-5-carboxamide], the IC50 at human FLT4 and on human Aurora A was less than 100 µM each time.

On to `COc1ccc(-c2nc(-c3ccccc3F)[nH]c2C(N)=O)cc1` [Example A-11, 2-(2-fluorophenyl)-4-(4-methoxyphenyl)-1H-imidazole-5-carboxamide], for which the IC50 at human FLT4 and on human Aurora A was less than 100 µM in each case.

On to `CN(C)CCNC(=O)c1ccc(Nc2oc(-c3c(F)cccc3F)nc2C(N)=O)cc1` [Example U-8, 5-(4-((2-(dimethylamino)ethyl)carbamoyl)phenylamino)-2-(2,6-difluorophenyl) oxazole-4-carboxamide], for which the IC50 at human FLT4 and on human Aurora A was less than 10 µM throughout.

`NC(=O)c1nc(-c2c(F)cccc2F)oc1-c1ccncc1` [Example F-8, 2-(2,6-difluorophenyl)-5-(pyridin-4-yl)oxazole-4-carboxamide]: the IC50 on human FLT4 and at human Aurora A was less than 10 µM each time.

As to `NC(=O)c1nc(-c2c(F)cccc2F)oc1Nc1ccc(C(=O)N[C@H]2CCCNC2)cc1` [Example Q-54, (S)-2-(2,6-difluorophenyl)-5-(4-(piperidin-3-ylcarbamoyl)phenylamino)oxazole-4-carboxamide], the IC50 on human FLT4 and on human Aurora A was less than 10 µM each time.

Take `NC(=O)c1nc(-c2c(F)cccc2F)oc1-c1ccc(NCCN2CCOCC2)cc1` [Example F-34, 2-(2,6-difluorophenyl)-5-(4-(2-morpholinoethylamino)phenyl)oxazole-4-carboxamide]: the IC50 at human FLT4 and at human Aurora A was less than 10 µM throughout.

As to `CN1CCN(c2ccc(Nc3oc(-c4c(F)cccc4F)nc3C(N)=O)cn2)CC1` [Example Q-49, 2-(2,6-difluorophenyl)-5-(6-(4-methylpiperazin-1-yl)pyridin-3-ylamino)oxazole-4-carboxamide], the IC50 on human FLT4 and on human Aurora A was less than 10 µM throughout.

As to `NC(=O)c1nc(-c2c(F)cccc2F)oc1Nc1ccc(C(=O)NC[C@@H]2CCCNC2)cc1` [Example Q-55, (R)-5-(4-((piperidin-3-ylmethyl)carbamoyl)phenylamino)-2-(2,6-difluorophenyl)oxazole-4-carboxamide], the IC50 on human FLT4 and at human Aurora A was less than 10 µM throughout.

With `CN(C)CCNc1ccc(-c2oc(-c3c(F)cccc3F)nc2C(N)=O)cc1` [Example F-33, 2-(2,6-difluorophenyl)-5-(4-(2-(dimethylamino)ethylamino)phenyl)oxazole-4-carboxamide], the IC50 on human FLT4 and on human Aurora A was less than 10 µM throughout.

Turning to `COc1ccc(-c2nc(-c3c(F)cccc3F)[nH]c2C(N)=O)cc1` [Example B-5, 2-(2,6-difluorophenyl)-4-(4-methoxyphenyl)-1H-imidazole-5-carboxamide], the IC50 on human FLT4 and at human Aurora A was less than 100 µM each time.

Consider `COc1ccccc1Nc1oc(-c2c(F)cccc2F)nc1C(N)=O` [Example Q-5, 2-(2,6-difluorophenyl)-5-(2-methoxyphenylamino)oxazole-4-carboxamide], for which the IC50 at human FLT4 is less than 10 µM; at human Aurora A it was less than 100 µM.

As to `NC(=O)c1[nH]c(-c2c(F)cccc2F)nc1-c1cccs1` [Example A-16, 2-(2,6-difluorophenyl)-4-(thiophen-2-yl)-1H-imidazole-5-carboxamide], the IC50 is less than 10 µM on human FLT4 and less than 100 µM on human Aurora A.

As for `NC(=O)c1nc(-c2ccncc2)oc1-c1ccc(N2CCNCC2)cc1` [Example M-14, 5-(4-(piperazin-1-yl)phenyl)-2-(pyridin-4-yl)oxazole-4-carboxamide], the IC50 at human FLT4 and at human Aurora A was less than 10 µM each time.

As to `COc1ccc(-c2oc(-c3cc[nH]n3)nc2C(N)=O)cc1` [Example N-1, 5-(4-methoxyphenyl)-2-(1H-pyrazol-5-yl)oxazole-4-carboxamide], the IC50 on human FLT4 and at human Aurora A was less than 10 µM in each case.

With `NC(=O)c1nc(-c2c(F)cccc2F)oc1-c1ccsc1` [Example F-5, 2-(2,6-difluorophenyl)-5-(thiophen-3-yl)oxazole-4-carboxamide], the results for the IC50 at human FLT4 and at human Aurora A were less than 10 µM and less than 100 µM, respectively.

`NCCCNC(=O)c1ccc(Nc2oc(-c3c(F)cccc3F)nc2C(N)=O)cc1` [Example Q-51, 5-(4-((3-aminopropyl)carbamoyl)phenylamino)-2-(2,6-difluorophenyl)oxazole-4-carboxamide]: the IC50 at human FLT4 and on human Aurora A was less than 10 µM each time.

With `CNCCOc1ccc(-c2oc(-c3c(F)cccc3F)nc2C(N)=O)cc1` [Example S-20, 2-(2,6-difluorophenyl)-5-(4-(2-(methylamino)ethoxy)phenyl)oxazole-4-carboxamide], the IC50 at human FLT4 and at human Aurora A was less than 10 µM throughout.
